The text below walks through data of US20080280953A1, “Agents Used for the Treatment of Seeds” (Bayer Cropscience AG, priority 2004, published 2008).

Common to all, as to format: in vivo
The test system of assay [1] is white fly (Bemisia tabaci) eggs and larvae. As to the kind of experiment: Bemisia tabaci test, treated soil (Example Z). To be noted: 4 ppm in soil, cotton plant. How it is done:
(§1) To prepare a suitable active compound preparation 1 part by weight of the active compound is mixed with the given amount of solvent and emulsifier and the concentrate is diluted to the desired concentration with water.
The active compound preparation is mixed with earth. The concentration given relates to the amount of active compound per volume unit soil (mg/l=ppm). The treated earth is filled into pots and planted with a cotton plant (Gossypium hirsutum). After a week infection is carried out with white fly (Bemisia tabaci) for egg deposition.
After the desired time the death rate of eggs and larvae, respectively, in % is determined. Here 100% means that all animals were killed; 0% means that no animals that were killed.

Assay [2] has as its system adults of the Colorado beetle (Leptinotarsa decemlineata). Briefly: Leptinotarsa decemlineata adults test. To be noted: 60 g/ha, spray on potato leaves. The protocol: (§2) To prepare a suitable active compound preparation 1 part by weight of the active compound is mixed with the given amount of solvent and emulsifier and the concentrate is diluted to the desired concentration with water containing emulsifier.
Leaves of potato plant (Solanum tuberosum) that are infested with adults of the Colorado beetle, (Leptinotarsa decemlineata) are treated by spraying with the active compound at the desired concentration.
After the desired time the activity in % is determined. Here 100% means that all beetles were killed; 0% means that no beetles were killed.

Assay [3] relates to bird cherry-oat aphid (Rhopalosiphon padi). As to the kind of experiment: Rhopalosiphon padi test (seed application). To be noted: 1.4 g ai/kg, barley seed treatment. The protocol: as §1
Barley seed (Hordeum vulgare) is treated with the active compound preparation and sown into the soil. After about 1 week the barley plants are infected with the bird cherry-oat aphid (Rhopalosiphon padi).
(§3) After the desired time the death rate in % is determined. Here 100% means that all aphids were killed; 0% means that no aphids were killed.

The test system of assay [4] is mixed thrips population (Frankliniella occidentalis). Briefly: Frankliniella occidentalis test, spraying of cotton plants. To be noted: 100 ppm, spray on cotton plants. The protocol:
as §2
Cotton plants (Gossypium hirsutum) are treated by spraying with the active compound preparation at the desired concentration and infected with a mixed thrips population (Frankliniella occidentalis).
After the desired time the activity in % is determined. Here 100% means that all thrips were killed; 0% means that no thrips were killed.

The subject of assay [5] is larvae of the Colorado beetle (Leptinotarsa decemlineata). As to the kind of experiment: Leptinotarsa decemlineata larvae test, spraying of potato leaves. To be noted: 60 g ai/ha, spray on potato leaves. The protocol: as §2
Leaves of potato plants (Solanum tuberosum) that are infested with the larvae of the Colorado beetle (Leptinotarsa decemlineata) are treated by spraying with the active compound preparation at the desired concentration.
After the desired time the activity in % is determined. Here 100% means that all beetle larvae were killed; 0% means that no beetle larvae were killed.

Assay [6] deals with mealy cabbage aphid (Brevicoryne brassicae). Briefly: Brevicoryne brassicae test, open land (drench application). To be noted: 0.04 g/plant, drench on cabbage plants. How it is done: (§4) To prepare a suitable active compound preparation 1 part by weight of the active compound is mixed with the given amount of water to the desired concentration.
Cabbage plants (Brassica oleracea) that are infested with all stages of the mealy cabbage aphid (Brevicoryne brassicae) are drenched with an active compound preparation at the desired concentration.
as §3

For assay [7] the test system is unchanged. Briefly: Brevicoryne brassicae test, open land (spray treatment), Example J1. To be noted: 300 g/ha, spray on cabbage plants. How it is done:
as §4
Cabbage plants (Brassica oleracea) that are infested with all stages of the mealy cabbage aphid (Brevicoryne brassicae) are sprayed with an active compound preparation at the desired concentration.
as §3

For assay [8], the system named is white fly (Bemisia tabaci), all stages. As to the kind of experiment: Bemisia tabaci test, open land (spray treatment). To be noted: 300 g/ha, spray on paprika plants. The protocol: as §4
Paprika plants (Capsicum annuum) that are infested with all stages of the white fly (Bemisia tabaci) are sprayed with an active compound preparation at the desired concentration.
After the desired time the death rate in % is determined. Here 100% means that all white fly were killed; 0% means that no white fly were killed.

Assay [9] has as its system horse chestnut scale (Pulvinaria regalis). As to the kind of experiment: Pulvinaria regalis test, spraying of chestnut trees (Example B1). To be noted: 100 ppm, spray on chestnut trees. How it is done: as §2
Chestnut trees (Castaney vesca) that are infested with horse chestnut scale (Pulvinaria regalis) are treated by spraying with the active compound preparation at the desired concentration.
After the desired time the death rate in % is determined. Here 100% means that all animals were killed; 0% means that no animals were killed.

In assay [10] the test system is green peach aphid (Myzus persicae). As to the kind of experiment: Myzus persicae test (soil application). To be noted: 4 ppm in soil, pepper plant. The protocol: as §1
The active compound mixture was mixed with soil. The concentration given refers to amount of active compound per volume unit of earth (mg/l=ppm). Pots are filled with the treated earth and planted with a pepper plant (Capsicum annuum). After a week they are infected with the green peach aphid (Myzus persicae).
as §3

The subject of assay [11] is larvae of the corn root worm (Diabrotica balteata). As to the kind of experiment: Diabrotica balteata larvae test (soil application). To be noted: 8 ppm in soil, maize. How it is done: as §1
The active compound mixture was mixed with soil. The concentration given refers to amount of active compound per volume unit of earth (mg/l=ppm). Pots are filled with the treated earth and planted with 5 maize seeds per pot. 3 days after seeding larvae of the corn root worm (Diabrotica balteata) were placed in the treated soil.
After the desired time the death rate in % is determined. The level of activity is determined by the number of emerging plants

The subject of assay [12] is onion thrips (Thrips tabaci). Briefly: Thrips tabaci test, open land (spray treatment). To be noted: 300 g/ha, spray on onions. The protocol:
as §4
Onions (Allium cepa) that are infested with all stages of the onion thrips (Thrips tabaci) are sprayed with an active compound preparation at the desired concentration.
After the desired time the death rate in % is determined. Here 100% means that all thrips were killed; 0% means that no thrips were killed.

For assay [13], the system named is codling moth larvae (Cydia pomonella). As to the kind of experiment: Cydia pomonella test, treated feed. To be noted: 20 ppm in feed. The protocol: as §1
The active compound preparation was mixed with feed. The concentration given relates to the amount of active compound per unit volume feed (mg/l=ppm). The treated feed is placed in Petri dishes and infected with codling moth larvae (Cydia pomonella).
After the desired time the death rate in % is determined. Here 100% means that all larvae were killed; 0% means that no larvae were killed.

In assay [14] the test system is green leaf hopper (Nephotettix sp.). Briefly: Nephotettix sp. test, open land (spray treatment). To be noted: 300 g/ha, spray on rice plants. The protocol: as §4
Rice plants (Oryza sativa) that are infested with all stages of the green leaf hopper (Nephotettix sp.) are sprayed with an active compound preparation at the desired concentration.
After the desired time the death rate in % is determined. Here 100% means that all leaf hoppers were killed; 0% means that no leaf hoppers were killed.

For assay [15], the system named is brown plant hopper (Nilaparvata lugens). Briefly: Nilaparvata lugens test, open land (spray treatment). To be noted: 300 g/ha, spray on rice plants. The protocol:
as §4
Rice plants (Oryza sativa) that are infested with all stages of the brown plant hopper (Nilaparvata lugens) are sprayed with an active compound preparation at the desired concentration.
After the desired time the death rate in % is determined. Here 100% means that all plant hoppers were killed; 0% means that no plant hoppers were killed.

On to `CN(Cc1ccc(Cl)nc1)C1=CC(=O)OC1` [Compound 84], for which the entries for the “death rate after 14 days” value in [1], in assay [12] and in assay [15] were 100%, 89% and 91%, respectively. The “activity after 7 days” value in assay [2] was found to be 100%. The “Activity in % after 7 d” value in assay [3] and in [10] was 100% each time. The “Activity in % after 14 d” value in [4] was 99%. The “Activity in % after 6 d” value in [5] is 100%. In addition, the “death rate after 35 days” value in assay [6] stood at 100%. In addition, the “death rate after 22 days” value in [7] came to 99%. Besides, the “death rate after 65 days” value in assay [8] turned out to be 93%. Also, the “death rate after 30 days” value in assay [9] is 100%. Further, the “Activity in % after 4 d” value in assay [11] amounted to 100%. Moreover, the “death rate after 7 days” value in assay [13] is listed as 100%. In addition, the “death rate after 15 days” value in [14] is listed as 98%.
With `O=C1C=C(N(Cc2ccc(Cl)nc2)C2CC2)CO1` [Compound 88], the “death rate after 14 days” value stood at 100% in assay [1], 98% in assay [12] and 99% in assay [15]. In addition, in [2], the “activity after 7 days” value is on record as 100%. The “Activity in % after 7 d” value in assay [3] and in [10] was 100% each time. Further, in [4], the “Activity in % after 14 d” value worked out at 99%. Also, in [5], the “Activity in % after 6 d” value is 100%. The “death rate after 35 days” value in assay [6] is listed as 97%. Also, the “death rate after 22 days” value in assay [7] was determined as 99%. Further, the “death rate after 65 days” value in assay [8] was 93%. The “death rate after 30 days” value in [9] came to 95%. Moreover, the “Activity in % after 4 d” value in [11] is 90%. The “death rate after 7 days” value in [13] was found to be 90%. In assay [14], the “death rate after 15 days” value was found to be 99%.
